Common to all, as to test: relative viability (nuclei count vs DMSO), 5 days (fraction); higher = more cells survive
Compound in the assay “BMX-IN-1 + Tozasertib”: C=CC(=O)Nc1cc(-n2c(=O)ccc3cnc4ccc(-c5ccc(NS(C)(=O)=O)cc5)cc4c32)ccc1C [BMX-IN-1] + Cc1cc(Nc2cc(N3CCN(C)CC3)nc(Sc3ccc(NC(=O)C4CC4)cc3)n2)n[nH]1 [Tozasertib] (partner 0.1 µM)
The method, boiled down:
(§1)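 Relative viability is defined as nuclei in treated wells over nuclei in vehicle wells. Duplicate plates were run and medians reported. Lung cancer cell lines in 1536-well plates were dosed by pin tool one day after seeding, with one drug or with a fixed anchor-drug dose plus five library-drug doses (not always all listed) in √10 steps, and nuclei were counted after 5 days.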

Compound in the assay “Ibrutinib + Luminespib”: C=CC(=O)N1CCC[C@@H](n2nc(-c3ccc(Oc4ccccc4)cc3)c3c(N)ncnc32)C1 [Ibrutinib] + CCNC(=O)c1noc(-c2cc(C(C)C)c(O)cc2O)c1-c1ccc(CN2CCOCC2)cc1 [Luminespib] (partner 0.01 µM)
A digest of the protocol:
as §1

Compound in the assay “BMX-IN-1 + AZD7762”: C=CC(=O)Nc1cc(-n2c(=O)ccc3cnc4ccc(-c5ccc(NS(C)(=O)=O)cc5)cc4c32)ccc1C [BMX-IN-1] + NC(=O)Nc1cc(-c2cccc(F)c2)sc1C(=O)N[C@H]1CCCNC1 [AZD7762] (partner 0.2 µM)
The method, boiled down: as §1

Compound in the assay “BMX-IN-1 + Phenformin”: C=CC(=O)Nc1cc(-n2c(=O)ccc3cnc4ccc(-c5ccc(NS(C)(=O)=O)cc5)cc4c32)ccc1C [BMX-IN-1] + N=C(N)NC(=N)NCCc1ccccc1 [Phenformin] (partner 250 µM)
A digest of the protocol: as §1

Take EPLC-272H: the relative viability worked out at 0.218 in the assay with BMX-IN-1 + Tozasertib (first compound 0.02 µM); 0.222 in the assay with BMX-IN-1 + Tozasertib (first compound 0.2 µM); 0.279 with BMX-IN-1 + Tozasertib (first compound 0.6325 µM); 0.245 with BMX-IN-1 + Tozasertib (first compound 2 µM); 0.485 with Ibrutinib + Luminespib (first compound 0.005 µM); 0.433 in the assay with Ibrutinib + Luminespib (first compound 0.01581 µM). Also, the relative viability in the assay with Ibrutinib + Luminespib (first compound 0.05 µM) is 0.211; in the assay with Ibrutinib + Luminespib (first compound 0.1581 µM), 0.313; with Ibrutinib + Luminespib (first compound 0.5 µM) it was 0.211; with BMX-IN-1 + AZD7762 (first compound 0.02 µM), 0.231; in the assay with BMX-IN-1 + AZD7762 (first compound 0.2 µM) it was 0.217; with BMX-IN-1 + AZD7762 (first compound 0.6325 µM), 0.476. For the same cell line, the relative viability with BMX-IN-1 + AZD7762 (first compound 2 µM) was determined as 0.202; in the assay with BMX-IN-1 + Phenformin (first compound 0.02 µM) it was 0.263; with BMX-IN-1 + Phenformin (first compound 0.2 µM), 0.339; with BMX-IN-1 + Phenformin (first compound 0.6325 µM), 0.345; with BMX-IN-1 + Phenformin (first compound 2 µM) it was 0.281.

For LXF-289, the relative viability with BMX-IN-1 + Tozasertib (first compound 0.02 µM) stood at 0.212; with BMX-IN-1 + Tozasertib (first compound 0.2 µM), 0.197; with BMX-IN-1 + Tozasertib (first compound 0.6325 µM) it was 0.187; with BMX-IN-1 + Tozasertib (first compound 2 µM), 0.146; with Ibrutinib + Luminespib (first compound 0.005 µM), 0.685; with Ibrutinib + Luminespib (first compound 0.01581 µM), 0.673. Moreover, the relative viability was 0.722 in the assay with Ibrutinib + Luminespib (first compound 0.05 µM); 0.692 in the assay with Ibrutinib + Luminespib (first compound 0.1581 µM); 0.643 with Ibrutinib + Luminespib (first compound 0.5 µM); 1.25 with BMX-IN-1 + AZD7762 (first compound 0.02 µM); 1.18 with BMX-IN-1 + AZD7762 (first compound 0.2 µM); 1.22 with BMX-IN-1 + AZD7762 (first compound 0.6325 µM). Moreover, the relative viability in the assay with BMX-IN-1 + AZD7762 (first compound 2 µM) was 1.27; with BMX-IN-1 + Phenformin (first compound 0.02 µM), 0.481; with BMX-IN-1 + Phenformin (first compound 0.2 µM), 0.521; with BMX-IN-1 + Phenformin (first compound 0.6325 µM) it was 0.538; with BMX-IN-1 + Phenformin (first compound 2 µM), 0.536.

Regarding LOU-NH91, the relative viability in the assay with BMX-IN-1 + Tozasertib (first compound 0.02 µM) came out at 0.829; in the assay with BMX-IN-1 + Tozasertib (first compound 0.6325 µM), 0.715; with BMX-IN-1 + Tozasertib (first compound 2 µM) it was 0.656; with Ibrutinib + Luminespib (first compound 0.005 µM), 0.333; in the assay with Ibrutinib + Luminespib (first compound 0.01581 µM) it was 0.346; with Ibrutinib + Luminespib (first compound 0.05 µM), 0.267. Further, the relative viability with Ibrutinib + Luminespib (first compound 0.1581 µM) was 0.294; in the assay with Ibrutinib + Luminespib (first compound 0.5 µM) it was 0.309; with BMX-IN-1 + AZD7762 (first compound 0.2 µM) it was 0.806; with BMX-IN-1 + AZD7762 (first compound 0.6325 µM) it was 0.865; with BMX-IN-1 + AZD7762 (first compound 2 µM), 0.753; with BMX-IN-1 + Phenformin (first compound 0.02 µM), 0.411. Moreover, the relative viability came to 0.882 with BMX-IN-1 + Phenformin (first compound 0.6325 µM) and 0.704 in the assay with BMX-IN-1 + Phenformin (first compound 2 µM).

As to LCLC-103H, the relative viability was determined as 0.605 in the assay with BMX-IN-1 + Tozasertib (first compound 0.02 µM); 0.494 in the assay with BMX-IN-1 + Tozasertib (first compound 0.2 µM); 0.559 with BMX-IN-1 + Tozasertib (first compound 0.6325 µM); 0.485 in the assay with BMX-IN-1 + Tozasertib (first compound 2 µM); 1 in the assay with Ibrutinib + Luminespib (first compound 0.005 µM); 0.905 with Ibrutinib + Luminespib (first compound 0.01581 µM). In addition, the relative viability with Ibrutinib + Luminespib (first compound 0.05 µM) was 0.896; with Ibrutinib + Luminespib (first compound 0.1581 µM) it was 1.09; with Ibrutinib + Luminespib (first compound 0.5 µM), 0.897; with BMX-IN-1 + AZD7762 (first compound 0.02 µM), 0.824; with BMX-IN-1 + AZD7762 (first compound 0.2 µM) it was 0.887; with BMX-IN-1 + AZD7762 (first compound 0.6325 µM), 0.773. Besides, the relative viability with BMX-IN-1 + AZD7762 (first compound 2 µM) was determined as 0.82; with BMX-IN-1 + Phenformin (first compound 0.02 µM) it was 0.304; in the assay with BMX-IN-1 + Phenformin (first compound 0.2 µM) it was 0.389; in the assay with BMX-IN-1 + Phenformin (first compound 0.6325 µM) it was 0.319; with BMX-IN-1 + Phenformin (first compound 2 µM), 0.317.

In the case of COR-L23, the relative viability in the assay with BMX-IN-1 + Tozasertib (first compound 0.02 µM) was determined as 0.186; in the assay with BMX-IN-1 + Tozasertib (first compound 0.2 µM), 0.312; with BMX-IN-1 + Tozasertib (first compound 0.6325 µM), 0.213; with BMX-IN-1 + Tozasertib (first compound 2 µM), 0.212; in the assay with Ibrutinib + Luminespib (first compound 0.005 µM), 0.605; in the assay with Ibrutinib + Luminespib (first compound 0.01581 µM), 0.681. Moreover, the relative viability with Ibrutinib + Luminespib (first compound 0.05 µM) turned out to be 0.722; with Ibrutinib + Luminespib (first compound 0.1581 µM), 0.597; with Ibrutinib + Luminespib (first compound 0.5 µM) it was 0.622; with BMX-IN-1 + Phenformin (first compound 0.02 µM) it was 0.499; with BMX-IN-1 + Phenformin (first compound 0.2 µM), 0.553; with BMX-IN-1 + Phenformin (first compound 0.6325 µM), 0.46. Besides, the relative viability in the assay with BMX-IN-1 + Phenformin (first compound 2 µM) was determined as 0.48.

NCI-H1648: the relative viability turned out to be 0.447 with BMX-IN-1 + Tozasertib (first compound 0.02 µM); 0.47 in the assay with BMX-IN-1 + Tozasertib (first compound 0.2 µM); 0.426 with BMX-IN-1 + Tozasertib (first compound 0.6325 µM); 0.459 in the assay with BMX-IN-1 + Tozasertib (first compound 2 µM); 0.498 with BMX-IN-1 + AZD7762 (first compound 0.02 µM); 0.758 with BMX-IN-1 + AZD7762 (first compound 0.2 µM). For the same cell line, the values for the relative viability in the assay with BMX-IN-1 + AZD7762 (first compound 0.6325 µM) and with BMX-IN-1 + AZD7762 (first compound 2 µM) were 0.747 and 0.67, respectively.

(Values after the supplement of paper PMC10307832.)
